The term IC50 denotes the point on the concentration scale where inhibition reaches its midpoint.

This assay deals with Platelet-activating factor receptor (Homo sapiens, UniProt P25105). In words: Antagonist activity at human PAFR expressed in HEK293 cells assessed as inhibition of PAF C-16 ligand induced receptor activation preincubated for 90 mins followed by PAF ligand addition and measured after 60 mins by HTRF IP1 assay. Type of assay: functional, cell-based. (In general: In TR-FRET formats the signal depends on donor and acceptor labels being close together.)
Platelet-activating factor receptor, sequence (P25105 whole entry): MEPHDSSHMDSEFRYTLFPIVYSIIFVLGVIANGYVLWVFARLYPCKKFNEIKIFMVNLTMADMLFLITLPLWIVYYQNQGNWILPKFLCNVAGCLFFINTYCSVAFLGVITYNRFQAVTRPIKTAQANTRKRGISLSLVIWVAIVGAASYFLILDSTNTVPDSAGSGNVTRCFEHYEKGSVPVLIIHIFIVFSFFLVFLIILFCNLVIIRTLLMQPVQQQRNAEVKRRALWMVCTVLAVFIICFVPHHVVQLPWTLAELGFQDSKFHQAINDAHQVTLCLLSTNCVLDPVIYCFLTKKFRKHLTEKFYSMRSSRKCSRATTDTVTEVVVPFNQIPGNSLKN
Regarding `Cc1nnc2n1-c1sc3c(c1[C@@H](c1ccccc1Cl)NC2)C[C@@H](C(=O)NC1(c2ccc(Cl)cn2)CC1)C3`, the IC50 came out at 1.3 nM. Turning to `Cc1nnc2n1-c1sc3c(c1[C@@H](c1ccccc1Cl)NC2)C[C@@H](C(=O)NCc1ccc(C(F)(F)F)cc1)C3`, the IC50 stood at 0.4 nM. As to `Cc1nnc2n1-c1sc3c(c1[C@@H](c1ccccc1Cl)NC2)C[C@@H](C(=O)NC1CCC(F)(F)CC1)C3`, the IC50 worked out at 1.3 nM.

As for `Cc1nnc2n1-c1sc3c(c1[C@H](c1ccccc1Cl)NC2)C[C@@H](C(=O)NCc1ccccc1)C3`, the IC50 amounted to 1.1 nM.

These data come from ChEMBL document CHEMBL5316376, “Cyclopentathiophene Carboxamide Derivatives as PAFR Antagonists for Treating Ocular Diseases, Allergies, and Inflammation-Related Disorders” (ACS Med Chem Lett, 2023).
